Among the data in patent publication US5391540A, “Substituted pyridine compounds” (Rohm and Haas Company, priority 1993, dated 1995) are inhibition values, retold here.

Holding throughout (test): Pre-emergent herbicidal activity (Table A)
Assay type in all cases: in vivo

One experiment has as its system Barnyardgrass. The note with it: Echinochloa crus-galli, pre-emergence, Bygr, 11.2 kg/ha, 10-14 days, read-out: herbicidal rating (% inhibition). The gist of the method:
(§1)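 Seeds or perennial propagules set on compacted topsoil, then covered with soil mixed with a known amount of test compound applied in acetone or water carrier. Ratings assigned on a scale based on percent inhibition of each species.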

For the next experiment, the system named is Canada thistle. The note with it: Cirsium arvense, pre-emergence, Cath, 11.2 kg/ha, 10-14 days, read-out: herbicidal rating (% inhibition). The gist of the method: as §1
The subject of the next experiment is Cocklebur. Conditions: Xanthium strumarium, pre-emergence, Cobu, 11.2 kg/ha, 10-14 days, read-out: herbicidal rating (% inhibition). The gist of the method: as §1
In the next experiment the test system is Common Lambsquarters. The note with it: Chenopodium album, pre-emergence, Colq, 11.2 kg/ha, 10-14 days, read-out: herbicidal rating (% inhibition). The gist of the method:
as §1

The next experiment deals with Downy Brome. Conditions: Bromus tectorum, pre-emergence, Dobr, 11.2 kg/ha, 10-14 days, read-out: herbicidal rating (% inhibition). The gist of the method: as §1
The subject of another experiment is Morningglory. Conditions: Ipomoea, pre-emergence, Mogl, 11.2 kg/ha, 10-14 days, read-out: herbicidal rating (% inhibition). The gist of the method:
as §1

A further experiment deals with Pennsylvania Smartweed. The note with it: pre-emergence, Pesw, 11.2 kg/ha, 10-14 days, read-out: herbicidal rating (% inhibition). The gist of the method:
as §1

Another experiment relates to Quackgrass. The note with it: pre-emergence, Rhqg, 11.2 kg/ha, 10-14 days, read-out: herbicidal rating (% inhibition). The gist of the method: as §1
A further experiment relates to Rhizome Johnsongrass. The note with it: Sorghum halepense, pre-emergence, Rhjg, 11.2 kg/ha, 10-14 days, read-out: herbicidal rating (% inhibition). The gist of the method: as §1
In another experiment the test system is Velvetleaf. Conditions: Abutilon theophrasti, pre-emergence, Vele, 11.2 kg/ha, 10-14 days, read-out: herbicidal rating (% inhibition). The gist of the method:
as §1

The test system of the next experiment is Yellow Nutsedge. The note with it: Cyperus, pre-emergence, Yens, 11.2 kg/ha, 10-14 days, read-out: herbicidal rating (% inhibition). The gist of the method: as §1

Turning to `CCOC(=O)c1c(OC)nc(C(F)F)c(C(=O)OC)c1CC(C)C` [Compound 26, 3,5-pyridinedicarboxylic acid, 2-(difluoromethyl)-6-methoxy-4-(2-methylpropyl)-, 5-ethyl 3-methyl ester], the inhibition (as a rule, the share of the control response that was lost under treatment) at 11200 g/ha lay in the range of 75 to 100% with Barnyardgrass; 75 to 100% in the experiment on Canada thistle; 0 to 24% in the experiment with Cocklebur; 75 to 100% with Common Lambsquarters; 75 to 100% with Downy Brome; 75 to 100% in the experiment with Morningglory. The inhibition at 11200 g/ha was 75 to 100% in the experiment on Pennsylvania Smartweed; 75 to 100% with Quackgrass; 75 to 100% in the experiment on Rhizome Johnsongrass; 75 to 100% in the experiment with Velvetleaf; 0 to 24% with Yellow Nutsedge.

With `COC(=O)c1c(C(F)(F)F)nc(OC)c(C2=NCCO2)c1CC(C)C` [Compound 27, 3-pyridinecarboxylic acid, 5-(4,5-dihydro-2-oxazolyl)-6-methoxy-4-(2-methylpropyl)-2-(trifluoromethyl)-, methyl ester], the inhibition at 11200 g/ha in the experiment with Barnyardgrass lay in the range of 75 to 100%; in the experiment on Canada thistle, 75 to 100%; in the experiment on Cocklebur, 25 to 49%; with Common Lambsquarters, 75 to 100%; with Downy Brome, 75 to 100%; in the experiment on Morningglory, 75 to 100%. Besides, the inhibition at 11200 g/ha in the experiment on Pennsylvania Smartweed lay within 75 to 100%; with Quackgrass it was 75 to 100%; with Rhizome Johnsongrass it was 0 to 24%; with Velvetleaf, 75 to 100%; in the experiment on Yellow Nutsedge, 50 to 74%.

For the compound `COC(=O)c1c(C(F)(F)F)nc(OC)c(C(=O)n2ccnc2)c1CC(C)C` [Compound 28, 3-pyridinecarboxylic acid, 6-methoxy-4-(2-methylpropyl)-5-(1H-imidazo1-1-ylcarbonyl)-2-(trifluoromethyl)-, methyl ester], the inhibition at 11200 g/ha in the experiment with Barnyardgrass lay within 75 to 100%; in the experiment on Canada thistle, 0 to 24%; in the experiment on Cocklebur, 75 to 100%; with Common Lambsquarters, 75 to 100%; in the experiment on Downy Brome it was 75 to 100%; in the experiment with Morningglory, 50 to 74%. The inhibition at 11200 g/ha was 50 to 74% in the experiment on Pennsylvania Smartweed; 0 to 24% with Quackgrass; 0 to 24% in the experiment with Rhizome Johnsongrass; 25 to 49% in the experiment with Velvetleaf; 0 to 24% in the experiment with Yellow Nutsedge.

For the compound `CCOC(=O)c1c(OC)nc(C(F)(F)Cl)c(C(=O)OC)c1CC(C)C` [Compound 29, 3,5-pyridinedicarboxylic acid, 2-(chlorodifluoromethyl)-6-methoxy-4-(2-methylpropyl)-, 5-ethyl 3-methyl ester], the inhibition at 11200 g/ha in the experiment with Barnyardgrass lay within 75 to 100%; in the experiment with Canada thistle, 0 to 24%; in the experiment on Cocklebur, 0 to 24%; in the experiment with Common Lambsquarters, 75 to 100%; with Downy Brome it was 75 to 100%; with Morningglory, 75 to 100%. Further, the inhibition at 11200 g/ha in the experiment with Pennsylvania Smartweed lay in the range of 75 to 100%; with Quackgrass, 75 to 100%; in the experiment on Rhizome Johnsongrass, 25 to 49%; with Velvetleaf, 75 to 100%; in the experiment on Yellow Nutsedge it was 25 to 49%.

Regarding `COC(=O)c1c(OC)nc(C(F)F)c(C(=O)OC)c1CC(C)C` [Compound 31, 3,5-pyridinedicarboxylic acid, 2-(difluoromethyl)-6-methoxy-4-(2-methylpropyl)-, dimethyl ester], the inhibition at 11200 g/ha in the experiment on Barnyardgrass was in the range of 75 to 100%; in the experiment with Canada thistle it was 0 to 24%; with Cocklebur, 0 to 24%; in the experiment with Common Lambsquarters it was 75 to 100%; in the experiment with Downy Brome it was 75 to 100%; with Morningglory it was 75 to 100%. For the same compound, the inhibition at 11200 g/ha with Pennsylvania Smartweed was in the range of 75 to 100%; with Quackgrass, 75 to 100%; in the experiment on Rhizome Johnsongrass, 75 to 100%; in the experiment on Velvetleaf, 75 to 100%; in the experiment on Yellow Nutsedge, 50 to 74%.

On to `COC(=O)c1c(C(F)(F)F)nc(OC)c(C(=O)SC)c1CC(C)C` [Compound 33, 3-pyridinecarboxylic acid, 6-methoxy-4-(2-methylpropyl)-5-[(methylthio)carbonyl]-2-(trifluoromethyl)-, methyl ester], for which the inhibition at 11200 g/ha with Barnyardgrass is 75 to 100%; in the experiment with Canada thistle it was 50 to 74%; in the experiment with Cocklebur it was 25 to 49%; with Common Lambsquarters, 75 to 100%; in the experiment on Downy Brome, 75 to 100%; in the experiment with Morningglory, 75 to 100%. The inhibition at 11200 g/ha was in the range of 75 to 100% in the experiment on Pennsylvania Smartweed; 75 to 100% in the experiment with Quackgrass; 75 to 100% in the experiment with Rhizome Johnsongrass; 75 to 100% in the experiment on Velvetleaf; 50 to 74% in the experiment with Yellow Nutsedge.

On to `COC(=O)c1c(OC)nc(C(F)(F)F)c(C(=O)SC)c1CC(C)C` [Compound 34, 3-pyridinecarboxylic acid, 2-methoxy-4-(2-methylpropyl)-5-[(methylthio)carbonyl]-6-(trifluoromethyl)-, methyl ester], for which the inhibition at 11200 g/ha with Barnyardgrass, in the experiment with Canada thistle, in the experiment on Cocklebur, in the experiment with Common Lambsquarters, in the experiment on Downy Brome and in the experiment with Morningglory was 75 to 100% in each case. Further, the inhibition at 11200 g/ha in the experiment with Pennsylvania Smartweed fell in the range of 75 to 100%; in the experiment on Quackgrass, 75 to 100%; in the experiment with Rhizome Johnsongrass it was 75 to 100%; in the experiment on Velvetleaf, 50 to 74%; with Yellow Nutsedge it was 75 to 100%.

Turning to `CCOC(=O)C1=C(C(F)(F)F)NC(=O)C(C(N)=O)C1CC(C)C` (stereo not shown) [Compound 35, 3-pyridinecarboxylic acid, 5-(aminocarbonyl)-1,4,5,6-tetrahydro-4-(2-methylpropyl)-6-oxo-2-(trifluoromethyl)-, ethyl ester], the inhibition at 11200 g/ha in the experiment on Barnyardgrass, in the experiment with Canada thistle, in the experiment with Cocklebur, in the experiment on Common Lambsquarters, with Downy Brome and in the experiment on Morningglory was 0 to 24% throughout. For the same compound, the inhibition at 11200 g/ha in the experiment on Pennsylvania Smartweed, in the experiment with Quackgrass, in the experiment with Rhizome Johnsongrass, with Velvetleaf and with Yellow Nutsedge was 0 to 24% each time.

Regarding `COC(=O)c1c(OC)nc(C(F)(F)F)c(N)c1CC(C)C` [Compound 36, 3-pyridinecarboxylic acid, 5-amino-2-methoxy-4-(2-methylpropyl)-6-(trifluoromethyl)-, methyl ester], the inhibition at 11200 g/ha in the experiment with Barnyardgrass was in the range of 75 to 100%; with Canada thistle it was 25 to 49%; in the experiment on Cocklebur, 0 to 24%; with Common Lambsquarters it was 75 to 100%; in the experiment with Downy Brome it was 75 to 100%; in the experiment with Morningglory, 50 to 74%. For the same compound, the inhibition at 11200 g/ha lay in the range of 75 to 100% in the experiment with Pennsylvania Smartweed; 75 to 100% in the experiment on Quackgrass; 75 to 100% with Rhizome Johnsongrass; 50 to 74% in the experiment on Velvetleaf; 0 to 24% in the experiment on Yellow Nutsedge.

On to `CNC(=O)c1c(C(F)(F)F)nc(OC)c(C(=O)OC)c1CC(C)C` [Compound 37, 3-pyridinecarboxylic acid, 2-methoxy-5-[(methylamino)carbonyl]-4-(2-methylpropyl)-6-(trifluoromethyl)-, methyl ester], for which the inhibition at 11200 g/ha is 0 to 24% with Barnyardgrass; 0 to 24% in the experiment with Canada thistle; 0 to 24% with Cocklebur; 75 to 100% in the experiment with Common Lambsquarters; 0 to 24% in the experiment on Downy Brome; 0 to 24% in the experiment on Morningglory. In addition, the inhibition at 11200 g/ha in the experiment with Pennsylvania Smartweed, in the experiment with Quackgrass, with Rhizome Johnsongrass, with Velvetleaf and with Yellow Nutsedge was 0 to 24% each time.

`COC(=O)c1c(OC)nc(C(F)(F)F)c(C(=O)NCCO)c1CC(C)C` [Compound 38, 3-pyridinecarboxylic acid, 5-[[(2-hydroxyethyl)amino]carbonyl]-2-methoxy-4-(2-methylpropyl)-6-(trifluoromethyl)-, methyl ester]: the inhibition at 11200 g/ha in the experiment with Barnyardgrass, in the experiment with Canada thistle, in the experiment on Cocklebur, with Common Lambsquarters, with Downy Brome and in the experiment on Morningglory was 0 to 24% throughout. For the same compound, the inhibition at 11200 g/ha in the experiment with Pennsylvania Smartweed, with Quackgrass, in the experiment with Rhizome Johnsongrass, with Velvetleaf and in the experiment on Yellow Nutsedge was 0 to 24% each time.
